Data from patent publication US20030104487A1, “Neuropeptide receptor and uses thereof” (priority 2001, published 2003).

Tests used:
[1] = target: T1, EBI2 (Homo sapiens, UniProt P32249); assay: Response of EBI2 to CRF-family neuropeptides (test not specified); settings: general statement, no test named
[2] = target: T1, EBI2; assay: Functional assay measuring intracellular calcium mobilisation (FLIPR); assay type: cell-based; settings: EBI2-expressing cells compared to mock-transfected cells; FIG. 1
Method: 5×10^6 cells of a suitable host cell line, chosen to express a low number of endogenous receptors (e.g. HEK293 or CHO-K1) and engineered to stably express certain Gα proteins (e.g. mouse Gα15 (Wilkie, T. M. et al (1991) Proc. Natl. Acad. Sci. 88, 10049-10053), a chimeric Gqi5/Gqo5 α-subunit, or human Gα16 (Amatruda, TT 3rd et al (1991) Proc. Natl. Acad. Sci. 88, 5587-5591)), were transiently transfected with 7.5 μg of cDNA encoding EBI2 in a suitable mammalian cell expression vector, or vector alone, using Lipofectamine Plus® reagent (Gibco BRL) as per the manufacturer's protocol. […]
Fluorescence Imaging Plate Reader (FLIPR®) technology was employed as a means to detect activation of EBI2 by various potential GPCR agonists.
Cells were transfected as described in Example 3. […] The FLIPR® processing involved reading the fluorescence for all samples for 2 minutes; during this time the fluorescence baseline was determined […]. The desired amount of compounds (i.e. potential GPCR agonists) was then automatically transferred to the wells and the fluorescence was continuously monitored for the remainder of the time. […]
Compounds capable of acting as agonists for the receptor were identified by them causing a transient rise in fluorescence, and therefore in intracellular calcium, in the cells.

[3] = target: T1, EBI2; assay: β-Arrestin assay (GFP-β-arrestin clustering/internalisation); assay type: cell-based; set-up: expressed in transfected cells; host or cells: HEK 293; settings: HEK 293 cells transiently expressing EBI2 and GFP-β-arrestin; ligand ~500 nM, 30 minutes; confocal microscopy, FIG. 2
Description: General principle of the assay: Agonist binding to the GPCR activates G-proteins and ultimately results in second messenger cascades to elicit a physiological response. In most cases receptors occupied by agonists undergo rapid phosphorylation by GPCR Kinases (GRKs). This in turn allows β-arrestin to bind to the GPCR preventing any further interaction between the GPCR and G-protein. Internalisation of the GPCR via clathrin coated pits follows as a result of arrestin-clathrin interactions (Krupnick, J. G. and Benovic, J. L. (1998) Annual Review of Pharmacological Toxicology, 38, 289-319). By employing fusion constructs of green fluorescent protein (GFP)-β arrestin, this receptor desensitisation can be visualised using confocal microscopy. In the absence of receptor activation in a transfected cell line, fluorescence associated with the β-arrestin-GFP is evenly distributed throughout the cytoplasm. Upon receptor activation by an agonist, cytosolic β-arrestin-GFP translocates to the cell surface reflecting the interaction with the activated receptor (Evans et al. 2001). […]
The receptor EBI2 and GFP-β-arrestin mammalian expression constructs were transiently transfected in to HEK 293 cells. […] The cells were then analysed using both confocal microscopy and the Cellomics ArrayScanII methodologies in order to identify internalisation of the ligand receptor GFP-β-arrestin complex. […]

T1 sequence (P32249 whole entry): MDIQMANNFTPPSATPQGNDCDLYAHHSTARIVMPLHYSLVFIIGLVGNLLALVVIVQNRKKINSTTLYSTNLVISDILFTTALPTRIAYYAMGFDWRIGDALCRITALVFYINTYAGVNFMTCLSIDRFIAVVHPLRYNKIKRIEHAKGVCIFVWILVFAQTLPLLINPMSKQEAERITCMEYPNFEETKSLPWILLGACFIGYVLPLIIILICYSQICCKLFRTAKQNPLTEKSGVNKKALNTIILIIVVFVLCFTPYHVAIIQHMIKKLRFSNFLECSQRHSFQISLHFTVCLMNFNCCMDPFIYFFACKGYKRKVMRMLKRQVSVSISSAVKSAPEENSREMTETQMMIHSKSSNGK

Row | Molecule | receptor responds to the peptide [1] | fluorescence change over time (transient rise in intracellular calcium) [2] | clustering of GFP-β-arrestin complex on the cell surface [3]
1 | CC[C@H](C)[C@H](NC(=O)[C@@H](NC(=O)[C@H](CC(=O)O)NC(=O)[C@H](CC(C)C)NC(=O)[C@H](CC(C)C)NC(=O)[C@H](CC(C)C)NC(=O)[C@H](CCCNC(=N)N)NC(=O)[C@H](CC(N)=O)NC(=O)[C@H](CC(N)=O)NC(=O)[C@H](C)NC(=O)[C@H](C)NC(=O)[C@H](CCC(N)=O)NC(=O)[C@H](CCC(N)=O)NC(=O)[C@H](CCCCN)NC(=O)[C@H](CCC(=O)O)NC(=O)[C@H](CCCCN)NC(=O)[C@H](CCC(=O)O)NC(=O)[C@H](CCC(N)=O)NC(=O)[C@H](CCCCN)NC(=O)[C@H](CCC(=O)O)NC(=O)[C@@H](NC(=O)[C@H](CCC(=O)O)NC(=O)[C@@H](NC(=O)[C@H](CCSC)NC(=O)[C@H](CCCCN)NC(=O)[C@H](CCCNC(=N)N)NC(=O)[C@H](CC(C)C)NC(=O)[C@H](CC(C)C)NC(=O)[C@H](CCC(=O)O)NC(=O)[C@H](CC(C)C)NC(=O)[C@H](CO)NC(=O)[C@H](CC(C)C)NC(=O)[C@H](CC(=O)O)NC(=O)[C@@H](NC(=O)[C@H](CO)NC(=O)[C@@H](NC(=O)[C@@H]1CCCN1C(=O)[C@@H]1CCCN1C(=O)CNC(=O)[C@@H]1CCC(=O)N1)[C@@H](C)CC)[C@@H](C)CC)[C@@H](C)CC)[C@@H](C)CC)[C@@H](C)O)C(N)=O [sauvagine] | responds | – | –
2 | urotensin I | responds | response of EBI2-expressing cells to urotensin I | Clustering of the fluorescent GFP-β-arrestin complex is clearly observed
